According to patent publication US20050176764A1, “Medicine for treating cancer” (KOWA CO., LTD, priority 2002, published 2005):
Where a name gives a salt, the structure may show the parent alone.

Tests used:
Format in all cases: cell-based
[1] = system: cultured human cancer cells; experiment: Cancer cell growth inhibition, sulforhodamine B colorimetry, overall statement; details: result in words
Experimental: (§1) Cultured human cancer cells were placed in a 96-well plate. On the following day, a solution of the compound prepared in Example 10 (in five concentrations resulting from 10-fold stepwise dilution: 10^−4, 10^−5, 10^−6, 10^−7, or 10^−8 M) was added, followed by incubation for two days. Cell count after growth was determined in each plate through colorimetry using sulforhodamine B. The concentration at which the cell count after growth was inhibited to 50% of that of the cell count of the control (in the absence of the compound prepared in Example 10) was calculated (GI50). Simultaneously, on the basis of the cell count just before addition of the compound prepared in Example 10 (time zero), the following value (concentration) was calculated. • TGI: a concentration at which cell growth is inhibited to a cell count equal to that at time zero (concentration at which no change in cell count is observed) • LC50: a concentration at which cell count is reduced to 50% of the cell count at time zero (cell-killing effect).

[2] = system: ACHN (renal cancer); experiment: Cancer cell growth inhibition, sulforhodamine B colorimetry; details: incubation two days
Experimental: as §1

[3] = system: MKN74 (stomach cancer); experiment: as above; details: MKN74, incubation two days
Experimental: as §1

[4] = system: DMS114 (lung cancer); experiment: as above; details: DMS114, incubation two days
Experimental: as §1

[5] = system: PC-3 (prostatic carcinoma); experiment: as above; details: PC-3, incubation two days
Experimental: as §1

[6] = system: MCF-7 (breast cancer); experiment: as above; details: MCF-7, incubation two days
Experimental: as §1

[7] = system: HCC2998 (colon cancer); experiment: as above; details: HCC2998, incubation two days
Experimental: as §1

[8] = system: OVCAR-3 (ovarian cancer); experiment: as above
Experimental: as §1

[9] = system: SF-539 (brain tumor); experiment: as above; details: SF-539, incubation two days
Experimental: as §1

[10] = system: LOX-IMVI (melanoma); experiment: as above; details: incubation two days
Experimental: as §1

[11] = system: Human umbilical venous endothelial cells (HUVECs); experiment: Gene expression analysis (GeneChip HuGene FL array) in TNFα-stimulated HUVECs; details: Example 10 at 1 μM, TSA at 10 μM
Experimental: Human umbilical venous endothelial cells (HUVECs) were placed in 10 cm dishes (3×10^5 cells/dish). Two days thereafter, Trichostatin A (TSA, produced by Upstate) dissolved in dimethyl sulfoxide (DMSO) and the compound prepared in Example 10 dissolved in DMSO were individually added to a final concentrations of 10 μM and 1 μM, respectively. Each sample was stimulated with TNFα (final concentration: 10 ng/mL, Genzyme-Techne). Four hours later, total RNA was extracted with ISOGEN (Nippon Gene Co., Ltd.). The subsequent procedure was performed in accordance with the manufacturer's protocol (Affymetrix). From the thus obtained total RNA, mRNA was purified by a conventional method. cDNA was synthesized from the purified mRNA, and then biotin-labeled cRNA was synthesized by in vitro transcription. The cRNA was purified and subjected to heat treatment for fragmentation. The fragmented cRNA was used in gene expression analysis.
Method of gene expression analysis: The thus-prepared fragmented cRNA was injected to a HuGene human FL array (Affymetrix), and allowed to hybridize for 16 hours at 45° C. After washing, streptavidin labeled with phycoerythrin, and biotinylated anti-streptavidin antibody were added to each sample in order to cause reaction. Gene expression information was read by use of a dedicated scanner for GeneChip™ (Hewlett Packard). The thus-obtained information was analyzed with GeneChip Software (Affymetrix) for comparison in terms of level of expression.

[12] = Homo sapiens, 48 h, read-out: LC50 (the source's name)
[13] = out of 52 genes increased twice or more by TNFα

COc1ccc(N(Cc2ccnc(-c3cc(OC)c(OC)c(OC)c3)c2)C2CCN(Cc3ccnc(-c4cc(OC)c(OC)c(OC)c4)c3)CC2)cc1 [Example 10, 4-[N-(4-methoxyphenyl)-N-[[2-(3,4,5-trimethoxypheny)pyridin-4-yl]methyl]amino]-1-[[2-(3,4,5-trimethoxyphenyl)pyridin-4-yl]methyl]piperidine Trihydrochloride]
growth inhibitory effect on cultured human cancer cells [1]: strong growth inhibitory effect
GI50 ([2]; Homo sapiens, 48 h): 1.9 µM
CC50 [2, 12]: > 100 µM
TGI [2]: >100 µM
GI50 ([3]; Homo sapiens, MKN-74, 48 h): 0.026 µM
CC50 ([3]; Homo sapiens, MKN-74, 48 h, read-out: LC50 (the source's name)): > 100 µM
TGI [3]: 0.56 µM
TGI [4]: 2.6 µM
GI50 ([4]; Homo sapiens, DMS-114, 48 h): 0.038 µM
CC50 ([4]; Homo sapiens, DMS-114, 48 h, read-out: LC50 (the source's name)): > 100 µM
GI50 ([5]; Homo sapiens, 48 h): 26.3 µM
CC50 [5, 12]: > 100 µM
TGI [5]: >100 µM
GI50 ([6]; Homo sapiens, MCF7, 48 h): 0.16 µM
CC50 ([6]; Homo sapiens, MCF7, 48 h, read-out: LC50 (the source's name)): > 100 µM
TGI [6]: >100 µM
TGI [7]: 10 µM
GI50 ([7]; Homo sapiens, HCC 2998, 48 h): 0.33 µM
CC50 ([7]; Homo sapiens, HCC 2998, 48 h, read-out: LC50 (the source's name)): 40 µM
GI50 ([8]; Homo sapiens, 48 h, OVCAR-3, incubation two days): 0.35 µM
CC50 ([8]; Homo sapiens, OVCAR-3, 48 h, read-out: LC50): > 100 µM
TGI ([8]; OVCAR-3, incubation two days): 39 µM
GI50 ([9]; Homo sapiens, 48 h): 0.83 µM
LC50 (concentration reducing cell count to 50% of time-zero count) ([9]; Homo sapiens, 48 h): > 100 µM
TGI [9]: >100 µM
GI50 ([10]; Homo sapiens, 48 h): 0.18 µM
CC50 [10, 12]: 41 µM
TGI [10]: 1.2 µM
mRNA expression level of ABC transporter B2 ([11]; TNFα 10 ng/mL, 4 h): 69
mRNA expression level of B94 ([11]; TNFα 10 ng/mL, 4 h): 1010
mRNA expression level of BCL3 ([11]; TNFα 10 ng/mL, 4 h): 125
mRNA expression level of Cox-2 ([11]; TNFα 10 ng/mL, 4 h): 0
mRNA expression level of EphrinA1 ([11]; TNFα 10 ng/mL, 4 h): 148
mRNA expression level of Gro1 ([11]; TNFα 10 ng/mL, 4 h): 614
mRNA expression level of I kappa B alpha ([11]; TNFα 10 ng/mL, 4 h): 1259
mRNA expression level of IAP homolog B ([11]; TNFα 10 ng/mL, 4 h): 42
mRNA expression level of ICAM-1 ([11]; TNFα 10 ng/mL, 4 h): 2174
mRNA expression level of IFNGR2 ([11]; TNFα 10 ng/mL, 4 h): 186
mRNA expression level of IL-7R ([11]; TNFα 10 ng/mL, 4 h): 44
mRNA expression level of M-Ras-regulated GEF ([11]; TNFα 10 ng/mL, 4 h): 37
mRNA expression level of MCP-1 ([11]; TNFα 10 ng/mL, 4 h): 43
mRNA expression level of Na/K-ATPase beta-1 ([11]; TNFα 10 ng/mL, 4 h): 78
mRNA expression level of Nef associated factor 1 ([11]; TNFα 10 ng/mL, 4 h): 496
mRNA expression level of OB-cadherin-2 ([11]; TNFα 10 ng/mL, 4 h): 24
mRNA expression level of RDC1 ([11]; TNFα 10 ng/mL, 4 h): 27
mRNA expression level of Spliceosomal Protein Sap 49 ([11]; TNFα 10 ng/mL, 4 h): 40
mRNA expression level of TRAF1 ([11]; TNFα 10 ng/mL, 4 h): 88
mRNA expression level of VCAM-1 ([11]; TNFα 10 ng/mL, 4 h): 83
mRNA expression level of beta-galactoside alpha-2; 6-sialyltransferase ([11]; TNFα 10 ng/mL, 4 h): 14
mRNA expression level of caspase-like apoptosis regulatory protein 2 (clarp) ([11]; TNFα 10 ng/mL, 4 h): 76
mRNA expression level of cytoplasmic antiproteinase 2 (CAP2) ([11]; TNFα 10 ng/mL, 4 h): 78
mRNA expression level of ets-2 ([11]; TNFα 10 ng/mL, 4 h): 90
mRNA expression level of exodus-1 ([11]; TNFα 10 ng/mL, 4 h): 310
mRNA expression level of fractalkine ([11]; TNFα 10 ng/mL, 4 h): 7
mRNA expression level of junB ([11]; TNFα 10 ng/mL, 4 h): 210
mRNA expression level of lymphotoxin beta ([11]; TNFα 10 ng/mL, 4 h): −56
mRNA expression level of metalloproteinase stromelysin-2 ([11]; TNFα 10 ng/mL, 4 h): 54
mRNA expression level of ninjurin1 ([11]; TNFα 10 ng/mL, 4 h): 135
mRNA expression level of p50-NF-kappa B homolog ([11]; TNFα 10 ng/mL, 4 h): 33
number of genes whose expression was enhanced [11, 13]: 6 genes
number of genes whose expression was inhibited [11, 13]: 25 genes
